In publication PMC11096521 (Frontiers in Pharmacology, 2024):

Key:
[1] = biological target: T1, BCRP (Homo sapiens, UniProt Q9UNQ0)
T1 construct: gene ABCG2
T1 sequence (Q9UNQ0 1-655): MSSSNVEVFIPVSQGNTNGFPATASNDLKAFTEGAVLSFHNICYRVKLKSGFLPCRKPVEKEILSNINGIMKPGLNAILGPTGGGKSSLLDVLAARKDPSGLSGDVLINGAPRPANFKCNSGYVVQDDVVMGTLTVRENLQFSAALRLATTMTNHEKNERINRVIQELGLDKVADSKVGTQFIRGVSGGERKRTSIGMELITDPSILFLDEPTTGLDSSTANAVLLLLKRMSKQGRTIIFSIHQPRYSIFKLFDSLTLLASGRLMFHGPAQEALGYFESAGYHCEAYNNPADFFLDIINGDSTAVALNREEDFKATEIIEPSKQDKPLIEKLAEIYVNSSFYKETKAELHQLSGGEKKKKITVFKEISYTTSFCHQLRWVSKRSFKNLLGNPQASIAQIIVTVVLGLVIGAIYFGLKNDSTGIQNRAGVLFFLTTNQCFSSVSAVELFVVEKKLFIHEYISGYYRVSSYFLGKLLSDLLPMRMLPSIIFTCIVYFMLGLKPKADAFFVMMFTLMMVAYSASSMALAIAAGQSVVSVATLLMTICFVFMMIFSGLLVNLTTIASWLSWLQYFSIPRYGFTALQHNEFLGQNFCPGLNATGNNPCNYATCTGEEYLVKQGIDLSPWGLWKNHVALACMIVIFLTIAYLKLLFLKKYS

[2] = biological target: T2, P-gp (Homo sapiens, UniProt P08183); experiment: inhibition of ceralasertib-stimulated P-gp ATPase in crude membranes
T2 construct: gene ABCB1; crude membrane protein isolated from High Five insect cells
T2 sequence (P08183 whole entry): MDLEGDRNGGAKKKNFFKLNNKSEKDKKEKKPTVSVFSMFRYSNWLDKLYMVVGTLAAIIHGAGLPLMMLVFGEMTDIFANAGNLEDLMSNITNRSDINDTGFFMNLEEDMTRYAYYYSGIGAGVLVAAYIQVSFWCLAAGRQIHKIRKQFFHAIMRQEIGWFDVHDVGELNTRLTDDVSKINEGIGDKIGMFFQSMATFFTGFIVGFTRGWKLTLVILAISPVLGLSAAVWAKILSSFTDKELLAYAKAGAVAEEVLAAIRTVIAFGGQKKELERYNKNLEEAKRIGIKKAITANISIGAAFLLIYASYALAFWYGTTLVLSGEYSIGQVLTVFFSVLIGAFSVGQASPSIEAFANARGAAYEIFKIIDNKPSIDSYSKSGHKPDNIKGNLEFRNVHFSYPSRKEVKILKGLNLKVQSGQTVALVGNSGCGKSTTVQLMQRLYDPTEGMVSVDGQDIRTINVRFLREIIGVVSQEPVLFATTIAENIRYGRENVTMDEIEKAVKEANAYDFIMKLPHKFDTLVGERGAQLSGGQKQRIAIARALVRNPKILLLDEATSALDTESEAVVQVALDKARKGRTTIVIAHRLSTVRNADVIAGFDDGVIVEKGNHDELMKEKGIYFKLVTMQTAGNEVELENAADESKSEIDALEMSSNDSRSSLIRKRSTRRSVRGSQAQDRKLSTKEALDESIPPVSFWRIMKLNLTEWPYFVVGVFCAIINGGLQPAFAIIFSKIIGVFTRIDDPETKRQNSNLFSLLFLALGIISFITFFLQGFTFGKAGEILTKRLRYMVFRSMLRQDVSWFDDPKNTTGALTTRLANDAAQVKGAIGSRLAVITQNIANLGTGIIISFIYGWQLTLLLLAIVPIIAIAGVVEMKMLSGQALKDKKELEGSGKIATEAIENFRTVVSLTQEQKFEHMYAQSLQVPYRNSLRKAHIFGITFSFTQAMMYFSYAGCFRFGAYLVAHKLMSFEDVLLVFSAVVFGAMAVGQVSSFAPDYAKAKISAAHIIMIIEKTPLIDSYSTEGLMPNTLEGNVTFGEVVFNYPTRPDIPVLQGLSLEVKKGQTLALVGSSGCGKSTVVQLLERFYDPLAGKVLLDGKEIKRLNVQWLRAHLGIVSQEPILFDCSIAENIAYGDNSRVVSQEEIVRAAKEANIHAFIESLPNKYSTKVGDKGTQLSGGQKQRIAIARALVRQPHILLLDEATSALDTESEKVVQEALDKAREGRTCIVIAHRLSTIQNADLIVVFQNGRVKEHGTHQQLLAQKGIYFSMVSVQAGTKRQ

Structure (SMILES) | radiolabelled efflux/accumulation in NCI-H460/TPT10 cells, reversed by Ko143 [1] | inhibition of ceralasertib-stimulated P-gp ATPase in crude membranes [2]
O=C1c2c(O)ccc(O)c2C(=O)c2c(NCCNCCO)ccc(NCCNCCO)c21 [mitoxantrone] | BCRP-overexpressing NCI-H460/TPT10 cells have decreased intracellular level of [^3H]-mitoxantrone, which can be reversed by Ko143 | 
CN1CCC(COc2cnc(-c3cccc(Cn4nc(-c5cccc(C#N)c5)ccc4=O)c3)nc2)CC1 [tepotinib] |  | Tepotinib, a P-gp ATPase inhibitor, was able to significantly block the activation caused by ceralasertib.
